Reference: ChEMBL document CHEMBL1201862, “PubChem BioAssay data set” (2004)
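Interpolation was linear, between the two tested concentrations surrounding the appropriate level; five concentrations were tested over 48 hours in 96-well plates. Abbreviation: GI50, concentration required for 50% inhibition of growth.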 Active and inactive are the calls of the source. No stated cut-off is given here; in the data, active = GI50 up to about 1.1 µM and inactive = higher.

Key:
Test in all cases: inhibition of tumour cell growth, NCI panel, 48 h
[1] = test system: OVCAR-5
[2] = test system: A498
[3] = test system: EKVX
[4] = test system: HCT-116
[5] = test system: UO-31
[6] = test system: ACHN
[7] = test system: HCC 2998
[8] = test system: HT-29
[9] = test system: SF-268
[10] = test system: HOP-62
[11] = test system: UACC-62
[12] = test system: HL-60
[13] = test system: COLO 205
[14] = test system: HCT-15

Structure (SMILES) | GI50 [1] | GI50 [2] | GI50 [3] | GI50 [4] | GI50 [5] | GI50 [6] | GI50 [7] | GI50 [8] | GI50 [9] | GI50 [10] | GI50 [11] | GI50 [12] | GI50 [13] | GI50 [14]
COc1cc2c(cc1OC)C1Cc3ccc(OC)c(OC)c3C[N+]1([O-])CC2 (stereo unspecified) | > 100 µM (inactive) | > 100 µM (inactive) | > 100 µM (inactive) | > 100 µM (inactive) | > 100 µM (inactive) | > 100 µM (inactive) | > 100 µM (inactive) | > 100 µM (inactive) | > 100 µM (inactive) | > 100 µM (inactive) |  |  |  | 
CC1(C2CCC3(C)OC3C2)CO1 (stereo unspecified) | > 100 µM (inactive) |  | > 100 µM (inactive) | > 100 µM (inactive) | > 100 µM (inactive) | > 100 µM (inactive) | > 100 µM (inactive) | > 100 µM (inactive) | > 100 µM (inactive) | > 100 µM (inactive) | > 100 µM (inactive) | > 100 µM (inactive) | > 100 µM (inactive) | 
COC(=O)[C@H]1C=C[C@@H](C)n2c(=O)c3cc4ccccc4cc3c(=O)n21 | > 100 µM (inactive) | > 100 µM (inactive) | > 100 µM (inactive) | > 100 µM (inactive) | > 100 µM (inactive) | > 100 µM (inactive) | > 100 µM (inactive) |  | > 100 µM (inactive) | > 100 µM (inactive) |  | > 100 µM (inactive) | > 100 µM (inactive) | > 100 µM
COc1ccc2ccccc2c1CN1CCOCCOCCN(Cc2c(OC)ccc3ccccc23)CCOCCOCC1 | > 100 µM (inactive) | > 83.4 µM (inactive) | > 100 µM (inactive) | 25.1 µM (inactive) | > 100 µM (inactive) | > 100 µM (inactive) | 14.8 µM (inactive) | > 20.3 µM (inactive) | > 80.5 µM (inactive) | > 100 µM (inactive) | > 85.5 µM (inactive) | 32 µM (inactive) | > 90.4 µM (inactive) | > 91 µM
CC(C)N(C(=O)C12C3C4C5(C(=O)O)C(C1C35I)C42C(=O)O)C(C)C (stereo unspecified) | > 100 µM (inactive) | > 100 µM (inactive) | > 100 µM (inactive) | > 100 µM (inactive) | > 100 µM (inactive) | > 100 µM (inactive) | > 100 µM (inactive) | > 100 µM (inactive) | > 100 µM (inactive) | > 100 µM (inactive) | > 100 µM (inactive) | > 100 µM (inactive) | > 100 µM (inactive) | > 100 µM
COC(=O)c1nn(C(=N)c2ccc(Cl)cc2)c2c1CCCCC2 | > 100 µM (inactive) | > 100 µM (inactive) |  | > 100 µM (inactive) | > 100 µM (inactive) | > 100 µM (inactive) | > 100 µM (inactive) | > 100 µM (inactive) | > 100 µM (inactive) | > 100 µM (inactive) | > 100 µM (inactive) | > 100 µM (inactive) | > 100 µM (inactive) | > 100 µM
O=C(/C=C/c1ccc([N+](=O)[O-])cc1)c1ccc(NCc2nc3ccccc3[nH]2)cc1 | 13.5 µM (inactive) | 7.24 µM (inactive) | 7.69 µM (inactive) |  | 4.98 µM (inactive) | 10.5 µM (inactive) | 2.61 µM (inactive) | 3.44 µM (inactive) | 5.71 µM (inactive) | 10 µM (inactive) | 9.84 µM (inactive) | 1.6 µM (inactive) | 2.07 µM (inactive) | 2.93 µM
COC1=NCc2ccccc2-c2ccccc21 |  |  |  | > 100 µM (inactive) | 20.2 µM (inactive) | > 100 µM (inactive) |  | > 100 µM (inactive) | > 100 µM (inactive) |  | > 100 µM (inactive) | > 100 µM (inactive) |  | > 100 µM
COC(=O)C1=C(c2cc(OC)c(OC)c(OC)c2)OC(c2ccc(OC)c(OC)c2)C1 (stereo unspecified) | > 100 µM (inactive) | 22.6 µM (inactive) | > 100 µM (inactive) | 43.8 µM (inactive) | 38.9 µM (inactive) | 51.2 µM (inactive) | 54.7 µM (inactive) | 38.7 µM (inactive) | 55.8 µM (inactive) | 59.3 µM (inactive) | 71.4 µM (inactive) | 27.4 µM (inactive) | 19.1 µM (inactive) | 43.5 µM
CN(C)C(=S)/N=c1\ss/c(=N\S(=O)(=O)c2ccccc2)n1N(C)C |  | > 100 µM (inactive) | > 100 µM (inactive) | 75 µM (inactive) | > 100 µM (inactive) | > 100 µM (inactive) | > 100 µM (inactive) |  | 69.8 µM (inactive) | > 100 µM (inactive) | > 100 µM (inactive) | > 100 µM (inactive) | > 100 µM (inactive) | > 100 µM
Oc1ccc2ccccc2c1/N=N/c1ccsc1 | > 100 µM (inactive) | > 100 µM (inactive) |  | 42.7 µM (inactive) | > 100 µM (inactive) | > 100 µM (inactive) | > 100 µM (inactive) | 66.8 µM (inactive) | > 100 µM (inactive) | > 100 µM (inactive) | > 100 µM (inactive) | 73.8 µM (inactive) | > 100 µM (inactive) | 76.7 µM
CN(C)NC(=O)NC12CC3CC(CC(C3)C1)C2 | > 100 µM (inactive) | > 100 µM (inactive) | > 100 µM (inactive) | > 100 µM (inactive) | > 100 µM (inactive) | > 100 µM (inactive) |  | > 100 µM (inactive) | > 100 µM (inactive) |  | > 100 µM (inactive) | > 100 µM (inactive) | > 100 µM (inactive) | > 100 µM
O=C(n1c2ccccc2c2nnc(S)nc21)C(F)(F)F | > 100 µM (inactive) |  | > 100 µM (inactive) | > 100 µM (inactive) | > 100 µM (inactive) |  | > 100 µM (inactive) | > 100 µM (inactive) | > 100 µM (inactive) | > 100 µM (inactive) | > 100 µM (inactive) |  | > 100 µM (inactive) | > 100 µM
CC12C(=CC(=O)CC1SCCS(=O)(=O)O)C(C#N)=C(N)N2c1ccc(Cl)c(Cl)c1 (stereo unspecified) |  | > 100 µM (inactive) | > 100 µM (inactive) | > 100 µM (inactive) | > 100 µM (inactive) | > 100 µM (inactive) | > 100 µM (inactive) | > 100 µM (inactive) | > 100 µM (inactive) | > 100 µM (inactive) | > 100 µM (inactive) | > 100 µM (inactive) | > 100 µM (inactive) | > 100 µM
COc1cccc(/C=N/[N-]C(=S)Nc2ccccc2)c1[O-].O.[Zn+2] | > 100 µM (inactive) |  | 49.1 µM (inactive) |  | 33.6 µM (inactive) | 39.8 µM (inactive) | > 100 µM (inactive) | 72.4 µM (inactive) | 47 µM (inactive) | 17 µM (inactive) | 19.7 µM (inactive) | 28.8 µM (inactive) |  | 31.6 µM
Cc1ccc(-n2c3nc(=O)n(C)c(=O)c-3nc3ccccc32)c(C)c1 | 18.7 µM (inactive) | > 10 µM (inactive) | 8.67 µM (inactive) | 11.8 µM (inactive) | 24.3 µM (inactive) | 3.58 µM (inactive) | 5.16 µM (inactive) | 3.28 µM (inactive) | 15.4 µM (inactive) | 24.3 µM (inactive) | 2.33 µM (inactive) | 6.49 µM (inactive) | 3.46 µM (inactive) | 9.62 µM
